Entries after “also recorded” stand apart in the source; their conditions may differ. Where a SMILES comes first, the peptide text is derived from it. Bridges are numbered along the chain shown (N, C = ends). Where no end group is shown, it is not given here.
Tests used:
anti-PLA2R mouse 20 Ab [1] = test: ProteOn SPR, candidate peptide mouse 20 antibody binding kinetics; conditions: peptide immobilised on GLC chip, mouse 20 Ab 5-25 nM; for Ka: Langmuir 1:1
anti-PLA2R mouse 20 Ab [2] = test: Slot blot analysis with mouse 20 Ab; type: binding; conditions: for interaction with mouse 20 Ab in slot blot: 205 nm NanoDrop and ponceau S staining
Source text: Incorporating the 205 nm NanoDrop and ponceau S staining the assessment of the peptide epitope library was undertaken with the mouse 20 Ab.

mouse 20 Ab = test: ELISA analysis of peptide epitope library; type: binding; conditions: 1.5 ng of peptide immobilised, absorbance 450 nm
Procedure: ELISA 96 well plates (ThermoScientific, 3455) were coated with 100 μL of 1.5 μg/mL peptide in 0.1M NaHCO3 pH 9.5 buffer overnight at 4° C. The solution was removed and wells blocked with 100 μL of superblock (ThermoScientific, 37515) for 1 hour. The solution was again removed and replaced with 100 μL of 2 μg/mL of mouse 20 Ab in superblock containing 0.05% Tween. The wells were then incubated for 2 hours at room temperature with constant shaking. The solutions were removed and washed nine times in PBST and then replaced with 100 μL horseradish peroxidase (HRP) conjugated goat anti-mouse IgG 1:5000 in superblock containing 0.05% Tween. The wells were again incubated for two hours at room temperature with constant shaking. The solutions were removed and washed nine times in PBST. 100 μL tetramethylebenzadine (Sigma, T4444) was added and incubated for 10 minutes at room temperature. 50 μL of sulphuric acid and absorbance measured on a well plate reader at 450 nm. Controls of peptide with secondary Ab and primary and secondary Ab were prepared.

[3] = tested on: human Nottingham patient autoAb; test: PEPperCHIP peptide microarray substitution scan, phase 1; type: binding; conditions: Nottingham patient autoAbs
anti-PLA2R Mouse 20 Ab [4] = test: Ka 1/Ms
anti-PLA2R Mouse 20 Ab [5] = test: Kd 1/s
human anti-PLA2R autoAbs = test: Slot blot analysis with human anti-PLA2R autoAbs; conditions: non-reducing conditions, FIG. 1 D

Compound | Kd (anti-PLA2R mouse 20 Ab [1]) [nM] | Ka (anti-PLA2R mouse 20 Ab [1]) [M⁻¹ s⁻¹] | Ka (anti-PLA2R Mouse 20 Ab [4]) [M⁻¹ s⁻¹] | Kd (anti-PLA2R Mouse 20 Ab [5]) [s⁻¹] | further results
CC[C@H](C)[C@@H]1NC(=O)[C@@H](NC(=O)[C@H](CO)NC(=O)[C@H](CCC(=O)O)NC(=O)[C@H](CO)NC(=O)[C@H](CCC(N)=O)NC(=O)[C@@H](NC(=O)[C@@H](N)C(C)C)[C@@H](C)CC)CSSC[C@@H](C(=O)O)NC(=O)[C@H](CC(N)=O)NC(=O)[C@H](CCC(=O)O)NC(=O)[C@H](CC(C)C)NC(=O)[C@H]([C@@H](C)O)NC(=O)[C@H](CC(C)C)NC(=O)[C@H](C(C)C)NC(=O)[C@H](CO)NC(=O)[C@H](CCCCN)NC(=O)CNC(=O)[C@H](C)NC(=O)[C@H](CCC(N)=O)NC1=O [20mer] (H-VIQSESCIQAGKSVLTLENC-OH; disulfide 7-20) | ~0.1 | 1.56e+06 | 1.56e+06 | 0.000134 | interaction with mouse 20 Ab in slot blot (anti-PLA2R mouse 20 Ab [2]; peptide epitope library): little to no association; association with mouse 20 Ab in ELISA (mouse 20 Ab): little to no association; autoAb binding in substitution scan (in words) ([3]; listed as Peptide platform 2c): successfully interact; also recorded: successfully bound; autoAb binding in substitution scan (in words) ([3]; listed as Peptide platform 3c): successfully interact; also recorded: successfully bound
Head to Tail cyclic: head to tail cyclic 28mer (SEQ ID NO: 74) (KGCFVIQSESLKKSIQAGKSVLTLENCK; head-to-tail cyclisation) [listing 1 of 2 here] | – | – | 1.55e+06 | 9.4e-05 | –
VIQSESLKK [listing 1 of 2 here] | ~0.1 | 2.27e+06 | – | – | –
VIDSESLKK [listing 1 of 2 here] | ~0.1 | 1.86e+06 | – | – | –
PIDSESLKK [listing 1 of 2 here] | – | – | 1.79e+06 | 0.000143 | –
VIDSESLKK [listing 2 of 2 here] | – | – | 1.86e+06 | 0.00014 | –
PIQSESLKK [listing 1 of 2 here] | ~0.1 | 107000 | – | – | –
Head to Tail cyclic: head to tail cyclic 28mer (SEQ ID NO: 74) (KGCFVIQSESLKKSIQAGKSVLTLENCK; head-to-tail cyclisation) [listing 2 of 2 here] | ~0.1 | 1.55e+06 | – | – | slot blot staining with anti-PLA2R mouse 20 Ab (anti-PLA2R mouse 20 Ab [2]; non-reducing conditions, FIG. 1 D): stained positive; slot blot intensity of interaction with mouse 20 Ab (anti-PLA2R mouse 20 Ab [2]; peptide epitope library): highest intensity; interaction with mouse 20 Ab in slot blot (anti-PLA2R mouse 20 Ab [2]; peptide epitope library, listed as head to tail 28mer): found to interact; also recorded: displayed association; association with mouse 20 Ab in ELISA (mouse 20 Ab): displayed association; slot blot staining with human anti-PLA2R autoAbs (human anti-PLA2R autoAbs): stained positive
PIDSESLKK [listing 2 of 2 here] | ~0.1 | 1.79e+06 | – | – | –
VIQSESLKK [listing 2 of 2 here] | – | – | 2.27e+06 | 0.000136 | –
SVLTLENCK [Peptide 2] | ~0.1 | 1.43e+06 | 1.43e+06 | 5.32e-05 | –
PIQSESLKK [listing 2 of 2 here] | – | – | 107000 | 7.5e-05 | –
